Data reported in patent US20020151678A1, “Prophylaxis and therapy of acquired immunodeficiency syndrome” (Board of Regents, The University of Texas System., priority 1987, published 2002).
Entries after “also recorded” stand apart in the source; their conditions may differ.

Experiments:
[1] = tested on: native HIV envelope protein gp160; settings: disulfide (di-Cys) polymeric form
Text: FIG. 6 contains two panels of graphs that illustrate B6C3 F1 mouse PLN cell proliferation by ^3H-TdR incorporation as described before using varying concentrations of peptide multimer and gp120 as antigens. […] PPD and unrelated peptide were used as controls. A further discussion relating to FIGS. 6-8 is found hereinafter.
The cells were harvested onto filter strips and ^3H-TdR incorporation was monitored.
T cell proliferation measured by ^3H-TdR incorporation, was also similarly assayed as a function of the T cell antigen concentration, using various amounts of native gp120 or gp160 as one control, and PPD as another control. PLN from B6C3 F1 mice were used in these studies.

[2] = tested on: BALB/c mice; assay: ELISA for anti-peptide antibody response in sera of immunized BALB/c mice; format: in vivo; settings: high molecular weight (multimer) forms

| Sequence | T cell response directed against the corresponding peptide and native HIV envelope protein gp160 [1] | anti-peptide antibody response (in words) [2] |
| --- | --- | --- |
| VYYGVPVWKEA [Peptide 104, gp160 CR-1, residues 45-55] | strong T cell response | very low to negligible amounts of anti-peptide antibodies; also recorded: do not stimulate anti-peptide antibody production |
| FLGFLGAAGSTMGAASLTLTVQANQ [Peptide 63, gp160 conserved region 5, residues 519-543; di-Cys polymeric form] | strong T cell response | very low to negligible amounts of anti-peptide antibodies; also recorded: do not stimulate anti-peptide antibody production |
| LWDQSLKPCVKLT [Peptide 111, gp160 CR-1, residues 118-131] |  | very low to negligible amounts of anti-peptide antibodies |
| SVITQACSKVSFE [Peptide 113, gp160 CR-2, residues 204-216] | strong T cell response | very low to negligible amounts of anti-peptide antibodies; also recorded: do not stimulate anti-peptide antibody production |
| GTGPCTNVSTVQC [Peptide 116, gp160 CR-2, residues 240-252] |  | very low to negligible amounts of anti-peptide antibodies |
| YLRDQQLLGIWGC [Peptide 61, gp160 conserved region 5, residues 586-598; number denotes the di-Cys polymeric form] | strong T cell response | very low to negligible amounts of anti-peptide antibodies; also recorded: do not stimulate anti-peptide antibody production |
